Data set [1] is described as follows: pharmacokinetics in male Sprague-Dawley rats after oral gavage. Format: in vivo. Particulars: PO 50 mg/kg; for Cmax / AUC(0-t): rat, male Sprague-Dawley rats, plasma, average N=3, 70/30 Saline/PEG400; for AUC(0-t): read-out: AUC0-12. The method, then:
Compounds were evaluated for pharmacokinetic profiles in male Sprague-Dawley rats at Shanghai Chempartner, Shanghai, China. Etifoxine hydrochloride and the hydrochloride salt of the compound described in example 1 were dosed to Sprague-Dawley rats via oral gavage (PO). Each compound was administered at a dose of 50 mg/kg to three rats (N=3 rats/compound; total 6 rats in the study). Each compound was formulated in 70/30 Saline/PEG400 at a concentration of 5 mg/mL (10 mL/kg injection volume/rat). Blood samples were collected from each rat at 10, 20, 30, 45 minutes and 1, 2,4 and 12 hours post-dose. Blood samples were put on ice and centrifugated to obtain plasma. Plasma samples were analyzed for concentrations of the dosed compound at each time point by LC-MS/MS using an AB-Sciex API-400 mass spectrometer. The lower limit of quantitation of each compound was 1 ng/mL. Pharmacokinetic parameters were determined by non-compartmental analysis using WinNonlin 6.2 software.

The nature of data set [2]: rat liver microsomes stability study. Type of data set: in vitro ADME. Particulars: for half-life at 0.1 μM: rat, liver microsomes. The method, then:
(§1) Compounds were evaluated for liver microsome metabolic stability at Eurofins/Cerep (St. Charles, MO). […] Test compounds at a concentration of 0.1 μM were incubated for up to 60 minutes in duplicate. The microsomal protein concentration was 0.1 mg/mL. The parent compound was detected by HPLC-MS/MS analysis. The percent compound remaining was calculated by comparing the peak area of the parent compound at each time point to time zero. Half-life was estimated from the slope of the initial linear range of the logarithmic curve of parent compound remaining vs. time, assuming first order kinetics. The apparent intrinsic clearance was further calculated from the half-life value for assays with microsomes.

For data set [3] the following is noted: cited from earlier work.
The nature of data set [4]: liver human microsomes stability study. Format: in vitro ADME. The settings on record: for half-life at 0.1 μM: human, liver microsomes. The method, then: as §1
(Liver microsomes are vesicles of endoplasmic reticulum, rich in cytochrome P450 enzymes.)

Where [5] appears, read: 0.1 μM compound, 0.1 mg/mL microsomal protein, up to 60 minutes, read-out: Half-life (minutes) Experiment 2.
Setting [6] is: human liver microsomes, 0.1 μM compound, 0.1 mg/mL microsomal protein, up to 60 minutes, read-out: Half-life (minutes) Experiment 1.
Setting [7] is: rats, relative to etifoxine hydrochloride.
Where [8] appears, read: same conditions, different lot of human liver microsomes, read-out: average half-life.

Structures can show the parent of a compound that is named as a salt.

Consider 6 molecules from patent publication US12433896B2, “Deuterated analogs of etifoxine, their derivatives and uses thereof” (GABA Therapeutics Inc., priority 2015, dated 2025).

In general, Cmax refers to the highest concentration seen after dosing. As usually defined, the half-life is the time needed for the level to fall by half in the phase considered.

With `CCNC1=Nc2ccc(Cl)cc2C(C)(c2ccccc2)O1` (stereo not drawn) [Etifoxine hydrochloride, 6-chloro-2-(ethylamino)-4-methyl-4-phenyl-4H-3,1-benzoxazine, reference compound], in data set [1], the Cmax came to 1140 ng/mL and the AUC(0-t) amounted to 3380 ng·h/mL.

Regarding `CCNC1=Nc2ccc(Cl)cc2C(C)(c2ccccc2)O1` (stereo not drawn) [Etifoxine, 6-chloro-2-(ethylamino)-4-methyl-4-phenyl-4H-3,1-benzoxazine], in data set [2] (0.1 μM compound, 0.1 mg/mL microsomal protein, up to 60 minutes), the “Half-life (minutes) Experiment 1” value was 7.7 min. In addition, the figures for the half-life at 0.1 μM in data set [2] (setting [5]) and in data set [4] (setting [6]) were 7.4 min and 23 min, respectively. Also, in data set [3], the half-life in humans was 240 to 360 min. Moreover, the “Half-life (minutes) Experiment 2” value in data set [4] (human liver microsomes, 0.1 μM compound, 0.1 mg/mL microsomal protein, up to 60 minutes) was determined as 21.9 min.

Take `[2H]C([2H])([2H])C([2H])([2H])NC1=Nc2ccc(Cl)cc2C(C)(c2ccccc2)O1` (stereo not drawn) [Example 1 hydrochloride, 6-chloro-N-(ethyl-d5)-4-methyl-4-phenyl-4H-3,1-benzoxazin-2-amine]: in data set [1] (setting [7]), the “AUC0-12 greater than etifoxine hydrochloride” value worked out at 2.5 times and the “Cmax greater than etifoxine hydrochloride” value is 1.7 times. Besides, in data set [1], the Cmax was found to be 1930 ng/mL and the AUC(0-t) is 8340 ng·h/mL.

In the case of `[2H]C([2H])([2H])C([2H])([2H])NC1=Nc2ccc(Cl)cc2C(C)(c2ccccc2)O1` (stereo not drawn) [Example 1, 6-chloro-N-(ethyl-d5)-4-methyl-4-phenyl-4H-3,1-benzoxazin-2-amine], the half-life at 0.1 μM in data set [2] (0.1 μM compound, 0.1 mg/mL microsomal protein, up to 60 minutes, read-out: Half-life (minutes) Experiment 1) came out at 13.8 min; in data set [2] (setting [5]) it was 13.8 min; in data set [2] (average of experiments 1 and 2, read-out: Half-life (minutes) Average), 14 min; in data set [4] (setting [6]) it was 39.7 min; in data set [4] (human liver microsomes, 0.1 μM compound, 0.1 mg/mL microsomal protein, up to 60 minutes, read-out: Half-life (minutes) Experiment 2), 41.8 min; in data set [4] (human liver microsomes, average of experiments 1 and 2, read-out: Half-life (minutes) Average), 41 min. For the same molecule, the “half-life longer than that of etifoxine” value in data set [2] (relative to etifoxine) is on record as “about 75%”; in data set [4] (human liver microsomes, relative to etifoxine), “about 86%”.

With `[2H]c1c([2H])c([2H])c(C2(C)OC(NCC)=Nc3ccc(Cl)cc32)c([2H])c1[2H]` (stereo not drawn) [Example 6, 6-chloro-N-ethyl-4-methyl-4-(phenyl-d5)-4H-3,1-benzoxazin-2-amine], in data set [4] (setting [8]), the half-life at 0.1 μM amounted to 18 min.

Consider `[2H]C([2H])([2H])C1(c2ccccc2)OC(NCC)=Nc2ccc(Cl)cc21` (stereo not drawn) [Example 7, 6-chloro-N-ethyl-4-(methyl-d3)-4-phenyl-4H-3,1-benzoxazin-2-amine], for which the half-life at 0.1 μM in data set [4] (setting [8]) was 18 min.
